Among the data in PubChem BioAssay AID256 (DTP/NCI, 2004) are T/C values, retold here.

“And” between values parts separate entries of the source, which are not always exact repeats. Equal entries are not always repeated. Toxic doses and inconclusive results are not listed. Starred links: 1 amine or outer side, 2 acyl side, 3 side chain; linkers in the order of their positions; H or OH if unused. Non-standard residues stand in square brackets, D forms with d. Residues, ends and D or L forms follow the SMILES beside them. *: point of attachment. X2 = CCC(=O)CC1CC(C)CC(C(=O)[*:2])N1[*:1]; X1 = CCCCCCCCC(C)C(=O)*; Aib = CC(C)(N)C(=O)O; X3 = CC(CN(C)CCO)N*

The test system of this test is CD2F1 mice, L1210 leukemia ip, survival T/C. Kind of test: NCI In Vivo Anticancer Drug Screen. Data for tumor model L1210 Leukemia (intraperitoneal) in CD2F1 (CDF1) mice. The following applies: higher = longer survival. The gist of the method:
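Implant tumor; dose compound or vehicle; measure endpoint in both groups; report treated divided by control.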

Setting [1] is: endpoint: mean survival time, dose: 100.0 mg/kg/injection, schedule: Q01DX001 (ip), vehicle: saline.

`CCCCCCCCC(C)C(=O)N1CCCC1C(=O)N1C(CC(=O)CC)CC(C)CC1C(=O)NC(C)C(=O)NC(C)(C)C(=O)NC(C)(C)C(=O)NC(C(=O)NC(C)C(=O)NC(C)(C)C(=O)NC(C)(C)C(=O)NC(C)CN(C)CCO)C(C)CC` (centres undefined) (X1-P[X2]A[Aib][Aib]IA[Aib][Aib]-X3; configuration not given here): the T/C reads like this: (endpoint: mean survival time, dose: 0.15 mg/kg/injection, schedule: Q01DX009 (ip), vehicle: Klucel (hydroxypropylcellulose) (HPC)) 110 % of control; (endpoint: mean survival time, dose: 0.31 mg/kg/injection, schedule: Q01DX009 (ip), vehicle: Klucel (hydroxypropylcellulose) (HPC)) 111 % of control and 112 % of control; (endpoint: mean survival time, dose: 0.62 mg/kg/injection, schedule: Q01DX009 (ip), vehicle: Klucel (hydroxypropylcellulose) (HPC)) 115 % of control and 104 % of control; (endpoint: mean survival time, dose: 1.25 mg/kg/injection, schedule: Q01DX009 (ip), vehicle: Klucel (hydroxypropylcellulose) (HPC)) 122 % of control and 108 % of control; (endpoint: mean survival time, dose: 2.5 mg/kg/injection, schedule: Q01DX009 (ip), vehicle: Klucel (hydroxypropylcellulose) (HPC)) 115 % of control and 117 % of control; (endpoint: mean survival time, dose: 5.0 mg/kg/injection, schedule: Q01DX009 (ip), vehicle: Klucel (hydroxypropylcellulose) (HPC)) 103 % of control.
`O=C(N/N=C/c1ccccc1)c1ccc(Cl)cc1Cl`: the T/C is 100 % of control (endpoint: mean survival time, dose: 100.0 mg/kg/injection, schedule: Q01DX001 (ip), vehicle: Klucel (hydroxypropylcellulose) (HPC)); 100 % of control (endpoint: mean survival time, dose: 100.0 mg/kg/injection, schedule: Q01DX009 (ip), vehicle: Klucel (hydroxypropylcellulose) (HPC)); 97 % of control (endpoint: mean survival time, dose: 200.0 mg/kg/injection, schedule: Q01DX001 (ip), vehicle: Klucel (hydroxypropylcellulose) (HPC)); 94 % of control (endpoint: mean survival time, dose: 200.0 mg/kg/injection, schedule: Q01DX009 (ip), vehicle: Klucel (hydroxypropylcellulose) (HPC)); 101 % of control (endpoint: mean survival time, dose: 400.0 mg/kg/injection, schedule: Q01DX001 (ip), vehicle: Klucel (hydroxypropylcellulose) (HPC)); 91 % of control (endpoint: mean survival time, dose: 400.0 mg/kg/injection, schedule: Q01DX009 (ip), vehicle: Klucel (hydroxypropylcellulose) (HPC)).
`O=CC(O)C(O)C(O)C(O)CO` (centres undefined): the T/C (endpoint: mean survival time, dose: 100.0 mg/kg/injection, schedule: Q01DX009 (ip), vehicle: saline) is 93 % of control; the T/C (endpoint: mean survival time, dose: 200.0 mg/kg/injection, schedule: Q01DX009 (ip), vehicle: saline) was 91 % of control; the T/C (endpoint: mean survival time, dose: 0.2 grams/kg/injection, schedule: Q03DX003 (ip), vehicle: water) was 100 % of control; the T/C (endpoint: mean survival time, dose: 400.0 mg/kg/injection, schedule: Q01DX009 (ip), vehicle: saline) was 95 % of control; the T/C (endpoint: mean survival time, dose: 0.4 grams/kg/injection, schedule: Q03DX003 (ip), vehicle: water) is 108 % of control; the T/C (endpoint: mean survival time, dose: 0.8 grams/kg/injection, schedule: Q03DX003 (ip), vehicle: water) was 107 % of control. Also, the T/C is, setting by setting: (endpoint: mean survival time, dose: 1.5 grams/kg/injection, schedule: Q03DX003 (ip), vehicle: water) 100 % of control; (endpoint: mean survival time, dose: 3.0 grams/kg/injection, schedule: Q03DX003 (ip), vehicle: water) 101 % of control; (endpoint: mean survival time, dose: 6.0 grams/kg/injection, schedule: Q03DX003 (ip), vehicle: water) 100 % of control; (endpoint: mean survival time, dose: 12.0 grams/kg/injection, schedule: Q03DX003 (ip), vehicle: water) 106 % of control; (endpoint: median survival time, dose: 75.0 mg/kg/injection, schedule: Q01DX009 (ip), vehicle: saline) 101 % of control; (endpoint: median survival time, dose: 150.0 mg/kg/injection, schedule: Q01DX009 (ip), vehicle: saline) 101 % of control. In addition, the T/C was 100 % of control (endpoint: median survival time, dose: 300.0 mg/kg/injection, schedule: Q01DX009 (ip), vehicle: saline); 100 % of control (endpoint: median survival time, dose: 600.0 mg/kg/injection, schedule: Q01DX009 (ip), vehicle: saline); 102 % of control (endpoint: median survival time, dose: 1200.0 mg/kg/injection, schedule: Q01DX009 (ip), vehicle: saline).
In the case of `Cc1cn(C2CC(OP(=O)(O)OCC3OC(n4cc(C)c(=O)[nH]c4=O)CC3OP(=O)(O)OCC3OC(n4cc(C)c(=O)[nH]c4=O)CC3OP(=O)(O)OCC3OC(n4cc(C)c(=O)[nH]c4=O)CC3OP(=O)(O)OCC3OC(n4ccc(N)nc4=O)C(O)C3O)C(CO)O2)c(=O)[nH]c1=O` (centres undefined), the T/C reads like this: (endpoint: median survival time, dose: 25.0 mg/kg/injection, schedule: Q01DX005 (ip), vehicle: saline) 111 % of control; (endpoint: median survival time, dose: 50.0 mg/kg/injection, schedule: Q01DX005 (ip), vehicle: saline) 114 % of control; (endpoint: median survival time, dose: 100.0 mg/kg/injection, schedule: Q01DX005 (ip), vehicle: saline) 124 % of control.
`O=C1c2ccc([N+](=O)[O-])cc2-c2c1cccc2[N+](=O)[O-]`: the T/C is 95 % of control (endpoint: mean survival time, dose: 25.0 mg/kg/injection, schedule: Q04DX002 (ip), vehicle: saline with Tween-80) and 87 % of control (endpoint: mean survival time, dose: 50.0 mg/kg/injection, schedule: Q04DX002 (ip), vehicle: saline with Tween-80).
Turning to `CN(C)C(=O)/N=N/C(=O)N(C)C`, the T/C under setting [1] is 104 % of control.
As for `COC(OC)c1[nH]c(=S)[nH]c(=O)c1Cc1cccc(Cl)c1`, the T/C reads like this: (endpoint: mean survival time, dose: 100.0 mg/kg/injection, schedule: Q04DX003 (ip), vehicle: saline sonified) 95 % of control; (endpoint: mean survival time, dose: 200.0 mg/kg/injection, schedule: Q04DX003 (ip), vehicle: saline sonified) 101 % of control; (endpoint: mean survival time, dose: 400.0 mg/kg/injection, schedule: Q04DX003 (ip), vehicle: saline sonified) 108 % of control.
Turning to `CC([NH-])CC[NH-].O=C(O)C(=O)O.[Pt+2]` (centres undefined), the T/C (endpoint: mean survival time, dose: 3.12 mg/kg/injection, schedule: Q04DX003 (ip), vehicle: saline with Tween-80) was 152 % of control; the T/C (endpoint: mean survival time, dose: 6.25 mg/kg/injection, schedule: Q04DX003 (ip), vehicle: saline with Tween-80) was 235 % of control; the T/C (endpoint: mean survival time, dose: 12.5 mg/kg/injection, schedule: Q04DX003 (ip), vehicle: saline with Tween-80) was 265 % of control.
Take `O=C1C2C3CCC(C3)C2N1Cc1ccccc1` (centres undefined): the T/C (endpoint: mean survival time, dose: 100.0 mg/kg/injection, schedule: Q04DX002 (ip), vehicle: other) was 93 % of control; the T/C (endpoint: mean survival time, dose: 200.0 mg/kg/injection, schedule: Q04DX002 (ip), vehicle: other) is 96 % of control; the T/C (endpoint: mean survival time, dose: 400.0 mg/kg/injection, schedule: Q04DX002 (ip), vehicle: other) is 96 % of control.
For the compound `O=CNCCO`, the T/C is, setting by setting: (endpoint: mean survival time, dose: 100.0 mg/kg/injection, schedule: Q01DX009 (ip), vehicle: saline with Tween-80) 98 % of control; (endpoint: mean survival time, dose: 100.0 mg/kg/injection, schedule: Q04DX003 (ip), vehicle: saline) 113 % of control; (endpoint: mean survival time, dose: 200.0 mg/kg/injection, schedule: Q01DX009 (ip), vehicle: saline with Tween-80) 94 % of control; (endpoint: mean survival time, dose: 200.0 mg/kg/injection, schedule: Q04DX003 (ip), vehicle: saline) 108 % of control; (endpoint: mean survival time, dose: 400.0 mg/kg/injection, schedule: Q01DX009 (ip), vehicle: saline with Tween-80) 93 % of control; (endpoint: mean survival time, dose: 400.0 mg/kg/injection, schedule: Q04DX003 (ip), vehicle: saline) 110 % of control.
On to `C=CCC(c1ccccc1)(c1ccccc1)c1ccccc1`, for which the T/C is, setting by setting: (endpoint: mean survival time, dose: 75.0 mg/kg/injection, schedule: Q01DX001 (ip), vehicle: saline) 93 % of control; (endpoint: mean survival time, dose: 150.0 mg/kg/injection, schedule: Q01DX001 (ip), vehicle: saline) 95 % of control; (endpoint: mean survival time, dose: 300.0 mg/kg/injection, schedule: Q01DX001 (ip), vehicle: saline) 97 % of control.
`C=CCC1(C)C(=O)CCC2=C1CCc1c(OC)cccc12` (centres undefined): the T/C under setting [1] is 90 % of control; the T/C (endpoint: mean survival time, dose: 200.0 mg/kg/injection, schedule: Q01DX001 (ip), vehicle: saline) was 90 % of control; the T/C (endpoint: mean survival time, dose: 400.0 mg/kg/injection, schedule: Q01DX001 (ip), vehicle: saline) was 92 % of control.
`OCC1OC(n2cnc3cc4ccccc4cc32)C(O)C1O` (centres undefined): the T/C (endpoint: median survival time, dose: 13.25 mg/kg/injection, schedule: Q01DX005 (ip), vehicle: saline with Tween-80) is 100 % of control; the T/C (endpoint: median survival time, dose: 26.5 mg/kg/injection, schedule: Q01DX005 (ip), vehicle: saline with Tween-80) was 98 % of control; the T/C (endpoint: median survival time, dose: 53.0 mg/kg/injection, schedule: Q01DX005 (ip), vehicle: saline with Tween-80) is 88 % of control; the T/C (endpoint: median survival time, dose: 106.0 mg/kg/injection, schedule: Q01DX005 (ip), vehicle: saline with Tween-80) is 91 % of control.
Take `CN(C)C1CCc2ccc3ccccc3c2C1=O` (centres undefined): the T/C is 105 % of control (endpoint: mean survival time, dose: 12.5 mg/kg/injection, schedule: Q01DX009 (ip), vehicle: saline); 102 % of control (endpoint: mean survival time, dose: 25.0 mg/kg/injection, schedule: Q01DX009 (ip), vehicle: saline); 105 % of control (endpoint: mean survival time, dose: 50.0 mg/kg/injection, schedule: Q01DX009 (ip), vehicle: saline).
`O=CC12C=CC(CC1)C1C(=O)OC(=O)C12` (centres undefined): the T/C (endpoint: mean survival time, dose: 100.0 mg/kg/injection, schedule: Q01DX001 (ip), vehicle: saline with Tween-80) is 104 % of control; the T/C (endpoint: mean survival time, dose: 200.0 mg/kg/injection, schedule: Q01DX001 (ip), vehicle: saline with Tween-80) was 103 % of control; the T/C (endpoint: mean survival time, dose: 400.0 mg/kg/injection, schedule: Q01DX001 (ip), vehicle: saline with Tween-80) is 101 % of control.
